Here are results for 18 compounds from BindingDB's records for doi:10.1002/cbic.201000376 (Gyeongsang National University, 2010).

Alpha-glucosidase MAL12, sequence (P53341 whole entry): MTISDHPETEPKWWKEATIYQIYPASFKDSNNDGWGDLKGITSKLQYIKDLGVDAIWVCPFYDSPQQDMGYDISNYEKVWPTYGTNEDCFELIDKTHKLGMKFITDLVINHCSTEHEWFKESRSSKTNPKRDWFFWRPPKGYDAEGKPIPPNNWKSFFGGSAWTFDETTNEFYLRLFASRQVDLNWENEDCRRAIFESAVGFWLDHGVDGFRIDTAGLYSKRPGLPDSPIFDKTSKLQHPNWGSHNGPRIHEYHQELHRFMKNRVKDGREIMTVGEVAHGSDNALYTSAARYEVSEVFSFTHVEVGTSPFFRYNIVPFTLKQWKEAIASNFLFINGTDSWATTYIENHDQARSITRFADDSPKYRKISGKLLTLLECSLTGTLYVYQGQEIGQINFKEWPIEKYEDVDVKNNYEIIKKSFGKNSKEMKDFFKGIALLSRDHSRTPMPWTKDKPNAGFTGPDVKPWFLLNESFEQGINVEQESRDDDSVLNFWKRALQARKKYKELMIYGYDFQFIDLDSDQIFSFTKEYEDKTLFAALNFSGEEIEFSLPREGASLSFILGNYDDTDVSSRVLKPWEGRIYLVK

This assay has as its target Alpha-glucosidase MAL12 (Saccharomyces cerevisiae (strain ATCC 204508 / S288c), UniProt P53341). Nature of the assay: Inhibition Assay. Here is the method: All enzymatic activities were determined by using the appropriate substrate (p-nitrophenyl-alpha-D-glucopyranoside, p-nitrophenyl-beta-D-gulcopyranoside, o-nitrophenyl-alpha-D-manno-pyranoside, p-nitrohenyl-alpha-D-galactopyranoside and strach at the pH or each enzyme.
Consider `Cc1ccc(NC(=O)Nc2ccc(/C=C/c3ccc(O)c(O)c3)cc2)cc1` [Urea derivative, 9], for which the IC50 stood at 63.6 µM.

With `O=C(Nc1ccc(Cl)cc1)Nc1ccc(/C=C/c2ccc(O)c(O)c2)cc1` [Urea derivative, 13], it took 14.3 µM to reach half-maximal inhibition (IC50) and affinity was put at a Ki of 4.6 µM.

As for `CNc1ccc(/C=C/c2ccc(O)c(O)c2)cc1` [Stilbene derivative, 4], the IC50 is more than 200 µM.

The compound `Oc1ccc(/C=C/c2cc(O)cc(O)c2)cc1` [5-[(E)-2-(4-hydroxyphenyl)ethenyl]benzene-1,3-diol] gave a 50% inhibitory concentration (IC50) of 26.4 µM and a Ki of 21.5 µM.

`O=C(Nc1ccccc1)Nc1ccc(/C=C/c2cc(O)cc(O)c2)cc1` [Urea derivative, 17]: the IC50 stood at 58.8 µM.

The compound `O=C(Nc1ccccc1)Nc1ccc(/C=C/c2ccc(O)cc2)cc1` [Urea derivative, 14] returned a half-inhibitory concentration (IC50) of 29.1 µM and a Ki of 17 µM.

For the compound `Nc1ccc(NC(=O)Nc2ccc(/C=C/c3ccc(O)c(O)c3)cc2)cc1` [Urea derivative, 8], it took 68.5 µM to reach half-maximal inhibition (IC50).

`O=C(Nc1ccc(/C=C/c2ccc(O)c(O)c2)cc1)Nc1ccc(C(F)(F)F)cc1` [Urea derivative, 10] registered a 50% inhibitory concentration (IC50) of 28.8 µM and a Ki of 12.1 µM.

Consider `CC(=O)Nc1ccc(/C=C/c2ccc(O)c(O)c2)cc1` [Stilbene derivative, 5], for which the IC50 is more than 200 µM.

The compound `O=C(Nc1ccc(F)cc1)Nc1ccc(/C=C/c2ccc(O)c(O)c2)cc1` [Urea derivative, 11] had an IC50 of 19.8 µM and a Ki of 7.2 µM.

Turning to `Nc1ccc(/C=C/c2ccc(O)cc2)cc1`, the IC50 was more than 200 µM.

Compound `O=C(Nc1ccc(/C=C/c2ccc(O)cc2)cc1)Nc1ccc(F)cc1F` [Urea derivative, 16] had an IC50 of 18.5 µM and a Ki of 9.4 µM.

`O=C(Nc1ccccc1)Nc1ccc(/C=C/c2ccc(O)c(O)c2)cc1` [Urea derivative, 6]: 42.1 µM corresponded to half-maximal inhibition (IC50) and the Ki was determined as 10.6 µM.

`COc1ccc(NC(=O)Nc2ccc(/C=C/c3ccc(O)cc3)cc2)cc1` [Urea derivative, 15] gave a concentration for half-maximal inhibition (IC50) of 60.1 µM.

As to `O=C(Nc1ccc(/C=C/c2cc(O)cc(O)c2)cc1)Nc1ccc(F)cc1F` [Urea derivative, 19], half-maximal inhibition (IC50) required 64.3 µM.

`COc1ccc(NC(=O)Nc2ccc(/C=C/c3cc(O)cc(O)c3)cc2)cc1` [Urea derivative, 18] yielded an IC50 of 105 µM.

`COc1ccc(NC(=O)Nc2ccc(/C=C/c3ccc(O)c(O)c3)cc2)cc1` [Urea derivative, 7] had an IC50 of 19.5 µM and an inhibition constant Ki of 10.5 µM.

Regarding `O=C(Nc1ccc(/C=C/c2ccc(O)c(O)c2)cc1)Nc1ccc(F)cc1F` [Urea derivative, 12], the midpoint of inhibition, the IC50, lay at 8.4 µM and the affinity corresponds to a Ki of 3.2 µM.
